Where a name gives a salt, the structure may show the parent alone. Read-outs that look alike come from different tables or passages of the source.

Common to all, as to type: biochemical
In one assay the target is TACE (Homo sapiens, UniProt P78536). Put plainly: TACE inhibition (fluorescent peptidyl substrate). The following applies: for inhibition at 1 µM: at 1µM concentration.
In another assay the target is MMP-9 (Homo sapiens, UniProt P14780). Put plainly: MMP-9 inhibition (thiopeptide or fluorescent peptide substrate assay). The following applies: for IC50: read-out: MMP-9 IC50; for inhibition at 1 µM: read-out: MMP-9 % inhibition, footnote: 1µM.
MMP-9, sequence (P14780 94-707): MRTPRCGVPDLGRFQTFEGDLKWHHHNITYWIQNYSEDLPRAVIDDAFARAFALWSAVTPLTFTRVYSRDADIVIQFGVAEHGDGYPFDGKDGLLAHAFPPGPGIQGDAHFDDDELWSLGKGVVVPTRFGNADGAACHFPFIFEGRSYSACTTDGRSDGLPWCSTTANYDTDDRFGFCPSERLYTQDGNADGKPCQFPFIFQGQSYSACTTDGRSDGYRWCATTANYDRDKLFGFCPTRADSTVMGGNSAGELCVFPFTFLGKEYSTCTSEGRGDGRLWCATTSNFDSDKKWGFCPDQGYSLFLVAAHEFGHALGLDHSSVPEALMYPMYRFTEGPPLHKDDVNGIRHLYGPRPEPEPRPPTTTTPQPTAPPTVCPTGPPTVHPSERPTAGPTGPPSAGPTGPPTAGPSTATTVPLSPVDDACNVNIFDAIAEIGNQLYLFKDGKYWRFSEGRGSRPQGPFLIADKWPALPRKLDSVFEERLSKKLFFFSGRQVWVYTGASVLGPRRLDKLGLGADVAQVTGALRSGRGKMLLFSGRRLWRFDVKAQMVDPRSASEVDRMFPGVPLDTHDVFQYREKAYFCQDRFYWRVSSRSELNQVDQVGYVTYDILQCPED
A further assay has as its target MMP-13 (Homo sapiens, UniProt P45452). Put plainly: MMP-13 inhibition (thiopeptide or fluorescent peptide substrate assay). The following applies: for inhibition at 1 µM: read-out: MMP-13 % inhibition, footnote: 1µM; for MMP-13 % inhibition: concentration given as (.1), unit not given.
A further assay has as its target T1, MMP-1 (Homo sapiens, UniProt P03956).
T1 sequence (P03956 100-469): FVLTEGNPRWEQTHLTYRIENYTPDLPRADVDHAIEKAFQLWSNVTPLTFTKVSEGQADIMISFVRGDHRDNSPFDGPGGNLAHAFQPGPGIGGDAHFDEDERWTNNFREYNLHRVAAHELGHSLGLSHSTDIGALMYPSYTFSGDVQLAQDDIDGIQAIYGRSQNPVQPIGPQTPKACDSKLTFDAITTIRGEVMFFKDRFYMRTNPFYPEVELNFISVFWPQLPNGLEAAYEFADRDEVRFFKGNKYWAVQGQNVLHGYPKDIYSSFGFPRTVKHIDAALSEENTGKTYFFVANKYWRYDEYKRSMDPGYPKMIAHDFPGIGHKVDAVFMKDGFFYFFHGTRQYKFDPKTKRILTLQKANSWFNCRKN
The experiment in a line: MMP-1 inhibition (thiopeptide or fluorescent peptide substrate assay). As to conditions: for IC50: read-out: MMP-1 IC50; for inhibition at 1 µM: read-out: MMP-1 % inhibition, footnote: 1µM; for MMP-1 % inhibition: concentration given as (10), unit not given.

TACE, sequence (P78536 215-824): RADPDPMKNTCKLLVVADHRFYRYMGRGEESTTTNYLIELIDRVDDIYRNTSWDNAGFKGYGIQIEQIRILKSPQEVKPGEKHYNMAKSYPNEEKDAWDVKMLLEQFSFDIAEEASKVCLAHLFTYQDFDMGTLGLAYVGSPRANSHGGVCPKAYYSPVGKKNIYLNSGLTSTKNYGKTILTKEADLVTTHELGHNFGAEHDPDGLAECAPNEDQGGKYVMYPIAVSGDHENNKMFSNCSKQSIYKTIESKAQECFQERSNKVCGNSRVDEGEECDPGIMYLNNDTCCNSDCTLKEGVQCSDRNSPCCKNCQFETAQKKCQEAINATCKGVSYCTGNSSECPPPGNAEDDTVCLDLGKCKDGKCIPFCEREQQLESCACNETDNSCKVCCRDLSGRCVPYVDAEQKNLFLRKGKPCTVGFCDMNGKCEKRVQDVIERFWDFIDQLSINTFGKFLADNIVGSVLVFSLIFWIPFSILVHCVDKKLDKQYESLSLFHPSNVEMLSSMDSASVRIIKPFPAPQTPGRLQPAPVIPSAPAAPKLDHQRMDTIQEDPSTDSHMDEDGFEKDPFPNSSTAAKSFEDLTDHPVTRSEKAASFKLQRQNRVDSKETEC
Experimental for MMP-13: The enzyme activity is measured by the rate of the color increase. The thiopeptide substrate is made up fresh as a 20 mM stock in 100% DMSO and the DTNB is dissolved in 100% DMSO as a 100 mM stock and stored in the dark at room temperature. Both the substrate and DTNB are diluted together to 1 mM with substrate buffer (50 mM HEPES pH 7.5, 5 mM CaCl2) before use. […] Alternatively, a fluorescent peptide substrate is used. In this assay, the peptide substrate contains a fluorescent group and a quenching group. Upon cleavage of the substrate by an MMP, the fluorescence that is generated is quantitated on the fluorescence plate reader. […] The substrate is dissolved in methanol and stored frozen in 1 mM aliquots. For the assay, substrate and enzymes are diluted in HCBC buffer to the desired concentrations. Compounds are added to the 96 well plate containing enzyme and the reaction is started by the addition of substrate. […] For either the thiopeptide or fluorescent peptide assays, the slope of the line is calculated and represents the reaction rate. […] The mean (x±sem) of the control rate is calculated and compared for statistical significance (p<0.05) with drug-treated rates using Dunnett's multiple comparison test.
Experimental for TACE: Using 96-well black microtiter plates, each well receives a solution composed of 10 µL TACE (Immunex, final concentration 1µg/mL), 70µL Tris buffer, pH 7.4 containing 10% glycerol (final concentration 10 mM), and 10 µL of test compound solution in DMSO (final concentration 1µM, DMSO concentration <1%) and incubated for 10 minutes at room temperature.
The reaction is read (excitation 340 nm, emission 420 nm) for 10 min. and the increase in fluorescence over time is plotted as a linear line. The slope of the line is calculated and represents the reaction rate.
The linearity of the reaction rate is confirmed (r^2 >0.85). The mean (x±sem) of the control rate is calculated and compared for statistical significance (p<0.05) with drug-treated rates using Dunnett's multiple comparison test.

The term IC50 denotes the midpoint of a concentration-inhibition curve. Turning to `CCN(CC)Cc1ccc(CN(c2c(C)cccc2C(=O)NO)S(=O)(=O)c2ccc(OC)cc2)cc1` [Example 377, 2-[(4-Diethylaminomethyl-benzyl)-(4-methoxy-benzenesulfonyl)-amino]-N-hydroxy-3-methyl-benzamide], the IC50 on TACE (read-out: TACE IC50) was determined as 258 nM; on MMP-9 it was 4.7 nM; on MMP-13 (read-out: MMP-13 IC50), 15 nM; on MMP-1, 123 nM.

Turning to `COc1ccc(S(=O)(=O)N(Cc2ccc(CN(C)C)cc2)c2c(C)cccc2C(=O)NO)cc1` [Example 378, 2-[(4-Dimethylaminomethyl-benzyl)-(4-methoxy-benzenesulfonyl)-amino]-N-hydroxy-3-methyl-benzamide], the IC50 on TACE (read-out: TACE IC50) was determined as 243 nM; at MMP-9 it was 2.9 nM; at MMP-13 (read-out: MMP-13 IC50), 11 nM; at MMP-1 it was 213 nM.

On to `CCN(CC)CC#CCN(c1c(C)cccc1C(=O)NO)S(=O)(=O)c1ccc(OC)cc1` [Example 381, 2-[(4-Diethylamino-but-2-ynyl)-(4-methoxy-benzenesulfonyl)-amino]-N-hydroxy-3-methyl-benzamide], for which the IC50 was determined as 218 nM at TACE (read-out: TACE IC50), 11 nM at MMP-9, 19 nM on MMP-13 (read-out: MMP-13 IC50) and 470 nM on MMP-1.

As usually defined, the inhibition is the share of the control response that was lost under treatment. For the molecule `CCOC(=O)CCCN(c1c(C)cccc1C(=O)NO)S(=O)(=O)c1ccc(OC)cc1` [Example 383, 4-[(2-Hydroxycarbamoyl-6-methyl-phenyl)-(4-methoxy-benzenesulfonyl)-amino]-butyric acid ethyl ester], the inhibition at 1 µM at TACE stood at 45%; at MMP-9, 87%; at MMP-13 it was 48%; on MMP-1, 34%.

On to `CCOC(=O)CCCCN(c1c(C)cccc1C(=O)NO)S(=O)(=O)c1ccc(OC)cc1` [Example 384, 5-[(2-Hydroxycarbamoyl-6-methyl-phenyl)-(4-methoxy-benzenesulfonyl)-amino]-pentanoic acid ethyl ester], for which the inhibition at 1 µM was found to be 55% at TACE, 52% on MMP-9, 61% at MMP-13 and 48% at MMP-1.

`COc1ccc(S(=O)(=O)N(CC(=O)OCc2ccccc2)c2c(C)cccc2C(=O)NO)cc1` [Example 385, [(2-Hydroxycarbamoyl-6-methyl-phenyl)-(4-methoxy-benzenesulfonyl)-amino]-acetic acid benzyl ester]: the inhibition at 1 µM on TACE came out at 56%; at MMP-9, 65%; on MMP-13 it was 66%; on MMP-1, 25%.

As to `COc1ccc(S(=O)(=O)N(CC(=O)NCc2ccccn2)c2c(C)cccc2C(=O)NO)cc1` [Example 386, N-Hydroxy-2-[[(4-methoxyphenyl)sulfonyl][2-oxo-2-[(2-pyridinylmethyl)amino]ethyl]amino]-3-methylbenzamide], the inhibition at 1 µM turned out to be 46% against TACE and 21% on MMP-1. The MMP-9 % inhibition on MMP-9 (concentration given as (.1), unit not given) is listed as 16%(.1). In addition, the MMP-13 % inhibition on MMP-13 is 11%(.1).

In the case of `COc1ccc(S(=O)(=O)N(CC(=O)N2CCN(C)CC2)c2c(C)cccc2C(=O)NO)cc1` [Example 387, N-Hydroxy-2-{(4-methoxy-benzenesulfonyl)-[2-(4-methyl-piperazin-1-yl)-2-oxo-ethyl]-amino}-3-methyl-benzamide], the inhibition at 1 µM on TACE worked out at 38%. The IC50 on MMP-9 amounted to 96 nM; on MMP-13 (read-out: MMP-13 IC50), 307 nM; on MMP-1 it was 2720 nM.

In the case of `COc1ccc(S(=O)(=O)N(CCO)c2c(C)cccc2C(=O)NO)cc1` [Example 388, N-Hydroxy-2-[(2-hydroxy-ethyl)-(4-methoxy-benzenesulfonyl)-amino]-3-methyl-benzamide], the figures for the inhibition at 1 µM at TACE, on MMP-9 and on MMP-13 were 35%, 47% and 39%, respectively. Moreover, the MMP-1 % inhibition at MMP-1 was 66%(10).

With `COc1ccc(S(=O)(=O)N(Cc2ccccc2)c2c(C)cc(N(C)C)cc2C(=O)NO)cc1` [Example 389, 2-[Benzyl-(4-methoxy-benzenesulfonyl)-amino]-5-dimethylamino-N-hydroxy-3-methyl-benzamide], the IC50 was 633 nM at TACE (read-out: TACE IC50), 2 nM on MMP-9, 39 nM on MMP-13 (read-out: MMP-13 IC50) and 63 nM at MMP-1.

Turning to `COc1ccc(S(=O)(=O)N(Cc2ccc(OCCN3CCCCC3)cc2)c2c(C)cccc2C(=O)NO)cc1` [Example 393, N-Hydroxy-2-[[(4-methoxyphenyl)sulfonyl][[4-[2-(1-piperidinyl)ethoxy]phenyl]methyl]amino]-3-methylbenzamide], the IC50 on TACE is 277 nM; on MMP-9 it was 6.9 nM; on MMP-13 it was 56 nM; at MMP-1, 176 nM.

Regarding `CCN(CC)CCOc1ccc(CN(c2c(C)cccc2C(=O)NO)S(=O)(=O)c2ccc(OC)cc2)cc1` [Example 394, 2-[[4-(2-Diethylamino-ethoxy)-benzyl]-(4-methoxy-benzenesulfonyl)-amino]-N-hydroxy-3-methyl-benzamide], the IC50 stood at 215 nM on TACE (read-out: TACE IC50), 2.3 nM on MMP-9, 8.8 nM at MMP-13 (read-out: MMP-13 IC50) and 96 nM on MMP-1.

Consider `COc1ccc(S(=O)(=O)N(Cc2ccc(OCCN3CCCCC3)cc2)c2c(C)cc(Br)cc2C(=O)NO)cc1` [Example 395, 5-Bromo-N-hydroxy-2-{(4-methoxy-benzenesulfonyl)-[4-(2-piperidin-1-yl-ethoxy)-benzyl]-amino}-3-methyl-benzamide], for which the IC50 at TACE (read-out: TACE IC50) amounted to 108 nM; at MMP-9 it was 2.3 nM; at MMP-13 (read-out: MMP-13 IC50) it was 3.1 nM; at MMP-1, 35 nM.

Turning to `COc1ccc(S(=O)(=O)N(Cc2ccc(C(=O)NCCN3CCCCC3)cc2)c2c(C)cccc2C(=O)NO)cc1` [Example 396], the IC50 turned out to be 363 nM at TACE (read-out: TACE IC50), 6.3 nM at MMP-9, 35 nM at MMP-13 (read-out: MMP-13 IC50) and 184 nM on MMP-1.

On TACE, `COc1ccc(-c2ccc(-c3cc(C)c(N(Cc4cccnc4)S(=O)(=O)c4ccc(OC)cc4)c(C(=O)NO)c3)cc2)cc1` [Example 399, 4"-Methoxy-4-[(4-methoxy-benzenesulfonyl)-pyridin-3-ylmethyl-amino]-5-methyl-[1,1';4',1"]terphenyl-3-carboxylic acid hydroxyamide hydrochloride salt] registered an inhibition at 1 µM of 25%. The IC50 on MMP-9 was 45 nM; at MMP-13 (read-out: MMP-13 IC50) it was 41 nM; at MMP-1, 2200 nM.

For the molecule `COc1ccc(S(=O)(=O)N(Cc2cccnc2)c2c(C)cc(-c3cccc([N+](=O)[O-])c3)cc2C(=O)NO)cc1` [Example 400, 4-[(4-Methoxy-benzenesulfonyl)-pyridin-3-ylmethyl-amino]-5-methyl-3'-nitro-biphenyl-3-carboxylic acid hydroxyamide hydrochloride salt], the IC50 at TACE (read-out: TACE IC50) stood at 231 nM; at MMP-9, 6 nM; at MMP-13 (read-out: MMP-13 IC50), 4.9 nM; on MMP-1, 295 nM.

As to `COc1ccc(-c2cc(C)c(N(Cc3cccnc3)S(=O)(=O)c3ccc(OC)cc3)c(C(=O)NO)c2)cc1` [Example 401, 4'-Methoxy-4-[(4-methoxy-benzenesulfonyl)-pyridin-3-ylmethyl-amino]-5-methyl-biphenyl-3-carboxylic acid hydroxyamide hydrochloride salt], the IC50 at TACE (read-out: TACE IC50) was found to be 146 nM; on MMP-9 it was 1.4 nM; on MMP-13 (read-out: MMP-13 IC50) it was 2.8 nM; on MMP-1, 176 nM.

In the case of `COc1ccc(S(=O)(=O)N(Cc2cccnc2)c2c(C)cc(-c3cc4ccccc4s3)cc2C(=O)NO)cc1` [Example 402, 5-Benzo[b]thiophen-2-yl-N-hydroxy-2-[(4-methoxy-benzenesulfonyl)-pyridin-3-ylmethyl-amino]-3-methyl-benzamide hydrochloride salt], the half-maximal inhibitory concentration (IC50) is 639 nM at TACE (read-out: TACE IC50), 2.6 nM at MMP-9, 8.5 nM at MMP-13 (read-out: MMP-13 IC50) and 543 nM at MMP-1.

In the case of `COc1ccc(S(=O)(=O)N(Cc2cccnc2)c2c(C)cc(-c3ccc(OC(F)(F)F)cc3)cc2C(=O)NO)cc1` [Example 404, 4-[(4-Methoxy-benzenesulfonyl)-pyridin-3-ylmethyl-amino]-5-methyl-4'-trifluoromethoxy-biphenyl-3-carboxylic acid hydroxyamide hydrochloride salt], at TACE, the inhibition at 1 µM was determined as 54%. In addition, the results for the IC50 at MMP-9, at MMP-13 (read-out: MMP-13 IC50) and on MMP-1 were 5.9 nM, 9.5 nM and 1800 nM, respectively.

Take `COc1ccc(S(=O)(=O)N(Cc2cccnc2)c2c(C)cc(-c3ccc4c(c3)OCO4)cc2C(=O)NO)cc1` [Example 405, 5-Benzo[1,3]dioxol-5-yl-N-hydroxy-2-[(4-methoxy-benzenesulfonyl)-pyridin-3-ylmethyl-amino]-3-methyl-benzamide hydrochloride salt]: the IC50 on TACE (read-out: TACE IC50) stood at 151 nM; on MMP-9, 4.1 nM; on MMP-13 (read-out: MMP-13 IC50) it was 5.8 nM; at MMP-1, 176 nM.

Take `Cc1cccc(C(=O)NO)c1N(Cc1cccnc1)S(=O)(=O)c1ccc(-c2ccc(C(F)(F)F)cc2)cc1` [Example 410, N-Hydroxy-3-methyl-2-[pyridin-3-ylmethyl-(4'-trifluoromethyl-biphenyl-4-sulfonyl)-amino]-benzamide]: the inhibition at 1 µM against TACE stood at 2%; at MMP-9, 28%. For the same molecule, on MMP-13, the MMP-13 % inhibition is 40%(.1). Also, on MMP-1, the MMP-1 % inhibition is on record as 47%(10).

The record behind these values is patent publication EP0938471B1, “THE PREPARATION AND USE OF ORTHO-SULFONAMIDO ARYL HYDROXAMIC ACIDS AS MATRIX METALLOPROTEINASE AND TACE INHIBITORS” (priority 1996, dated 1998).
